Measured values reported in patent publication US20100197765A1, “METHOD FOR PROMOTING THE EXPRESSION OF P53, AND P53 EXPRESSION PROMOTER FOR USE IN THE METHOD” (THE UNIVERSITY OF TOKUSHIMA, priority 2007, published 2010).

Columns and labels:
p53 = p53 mRNA (quantitative RT-PCR) and protein in HCT116 clones stably expressing vegf IresRNA, cisplatin treated; assay type: cell-based, human; conditions: mock HCT116 cells, cisplatin 5 μg/mL, 6 h, 12 h vs 0 h
Description: Full length cDNAs of vegf IresRNA having a sequence from base 600 to base 879 in 5′ UTR of vegf mRNA of SEQ ID NO. 1 were inserted into plasmid vectors pcDNA3.1 (Invitrogen). Thus, vegf IresRNA expression vectors (pcDNA-vegf Ires) were produced. These vegf IresRNA expression vectors (pcDNA-vegf Ires) were transfected into HCT116 (parent cells, wild-type p53), and two types of cell clones that stably overexpress vegf IresRNA were selected with an antibiotic G418. The thus-established two types of vegf IresRNA-expressing cells are hereinafter referred to as vegf Ires-#1 and vegf Ires-#2. Furthermore, as a mock treatment, plasmid vectors pcDNA3.1 lacking the above-described insert were transfected into HCT116 cells, and the transfect cell clones were selected with the antibiotic G418. These cell clones were hereinafter referred to as a mock. Then, expression of vegf IresRNA in these cell clones was examined by Northern blotting.
Subsequently, each of these vegf IresRNA-stably expressing cell strains was treated in the presence or absence of 5 μg/mL of an anticancer agent cisplatinin for a predetermined time (0, 6, 8, 12, 24 h). Thereafter, the expression level of p53 mRNA was analyzed by quantitative RT-PCR, and the expression level of p53 protein was analyzed by Western immunoblotting. […]

HCT116 cells = assay: p53 mRNA, vegf IresRNA and vegf mRNA in HCT116 cells exposed to genotoxic stress (Northern); assay type: cell-based, human
Procedure: HCT116 cells (parent cells) were exposed to genotoxic stress that upregulates the expression of p53 mRNA. […] Also, HCT116 cells were exposed to UV-B for 1 minute. Then, after placing them under non-exposed conditions for a predetermined time (6, 12 hours), the expressions were examined in the same manner as in the above.

N.N.[Cl][Pt][Cl] [cisplatin]
expressions of p53 mRNA and p53 protein (p53): significant increase
expression of the p53 mRNA (HCT116 cells; HCT116, 5-FU 80 μmol/L, MMC 6 μg/ml or cisplatin 5 μg/ml, 0, 6, 12 hours): increased
expression of the vegf IresRNA (HCT116 cells; HCT116, cisplatin 5 μg/ml): decreased
